# Experimental data: US20210221866A1, “PROTEASE-RESISTANT LIPIDATED GLP-1 ANALOGS” (MEDIMMUNE LIMITED, priority 2015, published 2021)
# pEC50: −log10 of the molar value. Read-outs that look alike come from different tables or passages of the source. Numbered stars: 1 amine (or outer) side, 2 acyl side, 3 side chain; on linkers, the order of the positions; unused ones are H or OH. Square brackets hold non-standard residues; d marks the D form. Side chains are listed from the residue outwards. Peptide text beside a SMILES is read from it. * marks the point of attachment. C16 diacid = O=C(O)CCCCCCCCCCCCCCC(=O)*; γGlu = O=C(O)[C@H](CCC(=O)[*:2])N[*:1]; αMeF = C[C@](N)(Cc1ccccc1)C(=O)O; αMeK = C[C@](N)(CCCCN)C(=O)O; Lauroyl = CCCCCCCCCCCC(=O)*; αMeS = C[C@](N)(CO)C(=O)O; AEEA = NCCOCCOCC(=O)O; Aib = CC(C)(N)C(=O)O
# Tests used:
# Type in all cases: cell-based
# [1] = biological target: T1, human GLP-1 receptor (GLP-1R) (Homo sapiens, UniProt P43220); assay: cAMP assay, human GLP-1R cells; details: for EC50: mean of n1 and n2
# T1 construct: expressed in transfected cells; host or cells: HEK293 cells or CHO cells
# How it was run: (§1)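 Peptide-stimulated cAMP measured by two-step HTRF after a 30 min room-temperature incubation with receptor-expressing cells (hGLP-1R, hGIPR at 1×10^5 cells/ml; hGCGR at 2×10^5 cells/ml). Duplicate dilutions; EC50 from 4-parameter logistic fit of % Delta F.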
# GLP-1R (INS1e cells) = biological target: T2, GLP-1R (INS1e cells) (Rattus norvegicus, UniProt P32301); assay: INS1e assay, cAMP activity at GLP-1R; details: for EC50: mean of n1 and n2, read-out: INS1e assay EC50 Mean pM GLP-1R
# T2 construct: endogenous in cells; host or cells: INS1e cells
# T2 sequence (P32301 22-463): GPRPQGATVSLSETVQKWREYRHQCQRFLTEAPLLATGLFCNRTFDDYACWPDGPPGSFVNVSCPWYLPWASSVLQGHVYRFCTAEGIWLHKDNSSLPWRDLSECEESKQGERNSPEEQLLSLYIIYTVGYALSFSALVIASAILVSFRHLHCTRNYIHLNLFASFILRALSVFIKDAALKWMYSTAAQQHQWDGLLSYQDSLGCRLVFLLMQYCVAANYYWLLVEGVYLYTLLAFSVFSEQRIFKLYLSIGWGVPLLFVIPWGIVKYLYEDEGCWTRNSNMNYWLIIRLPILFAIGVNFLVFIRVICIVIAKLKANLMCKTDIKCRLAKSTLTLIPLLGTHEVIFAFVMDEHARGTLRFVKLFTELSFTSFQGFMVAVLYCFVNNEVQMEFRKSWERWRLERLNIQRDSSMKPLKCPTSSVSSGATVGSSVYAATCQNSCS
# [2] = biological target: T3, human glucagon receptor (GCGR) (Homo sapiens, UniProt P47871); assay: cAMP assay, human GCGR cells
# T3 construct: expressed in transfected cells; host or cells: HEK293 cells or CHO cells
# How it was run: as §1
# [3] = biological target: T4, human glucose-dependent insulinotropic peptide receptor (GIPR) (Homo sapiens, UniProt P48546); assay: cAMP assay, human GIPR cells
# T4 construct: expressed in transfected cells; host or cells: HEK293 cells or CHO cells
# T4 sequence (P48546 22-466): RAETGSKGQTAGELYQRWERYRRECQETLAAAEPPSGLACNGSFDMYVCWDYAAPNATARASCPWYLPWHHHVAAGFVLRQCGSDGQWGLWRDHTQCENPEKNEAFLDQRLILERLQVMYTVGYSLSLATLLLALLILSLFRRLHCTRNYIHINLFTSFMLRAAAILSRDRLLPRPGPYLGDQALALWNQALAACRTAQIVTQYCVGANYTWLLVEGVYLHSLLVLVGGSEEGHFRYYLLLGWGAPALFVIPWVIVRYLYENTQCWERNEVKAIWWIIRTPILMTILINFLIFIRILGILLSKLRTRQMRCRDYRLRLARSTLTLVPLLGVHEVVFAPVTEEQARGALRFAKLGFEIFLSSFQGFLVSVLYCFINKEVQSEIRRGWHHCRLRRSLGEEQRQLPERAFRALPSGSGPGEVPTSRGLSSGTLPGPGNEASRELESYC
# How it was run: as §1
# [4] = Table 8, substituted and mono-lipidated peptides
# T1 sequence (P43220 24-463): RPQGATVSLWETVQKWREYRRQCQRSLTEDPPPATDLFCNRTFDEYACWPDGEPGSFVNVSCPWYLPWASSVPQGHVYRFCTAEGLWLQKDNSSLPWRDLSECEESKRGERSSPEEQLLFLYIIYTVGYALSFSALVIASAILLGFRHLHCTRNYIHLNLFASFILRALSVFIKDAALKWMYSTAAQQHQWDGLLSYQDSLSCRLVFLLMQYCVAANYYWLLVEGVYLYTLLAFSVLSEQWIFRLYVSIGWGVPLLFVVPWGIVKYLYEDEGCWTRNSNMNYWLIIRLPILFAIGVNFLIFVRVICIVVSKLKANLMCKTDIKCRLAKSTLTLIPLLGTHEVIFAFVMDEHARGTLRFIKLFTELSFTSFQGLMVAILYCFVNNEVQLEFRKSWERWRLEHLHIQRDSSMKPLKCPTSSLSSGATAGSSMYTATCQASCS
# T3 sequence (P47871 26-477): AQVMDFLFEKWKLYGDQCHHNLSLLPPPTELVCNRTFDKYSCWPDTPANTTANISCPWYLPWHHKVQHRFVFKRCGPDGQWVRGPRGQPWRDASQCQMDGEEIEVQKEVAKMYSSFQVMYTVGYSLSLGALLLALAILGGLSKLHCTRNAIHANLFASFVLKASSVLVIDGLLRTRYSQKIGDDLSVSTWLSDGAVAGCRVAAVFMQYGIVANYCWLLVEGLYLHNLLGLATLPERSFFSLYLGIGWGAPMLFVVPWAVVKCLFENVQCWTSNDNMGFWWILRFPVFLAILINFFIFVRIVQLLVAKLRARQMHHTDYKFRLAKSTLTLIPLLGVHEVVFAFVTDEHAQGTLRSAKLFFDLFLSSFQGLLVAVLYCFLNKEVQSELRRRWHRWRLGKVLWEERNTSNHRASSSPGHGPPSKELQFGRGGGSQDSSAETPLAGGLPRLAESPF
structure (smiles),measurement,setting,value
CC[C@H](C)[C@H](NC(=O)[C@](C)(Cc1ccccc1)NC(=O)[C@H](CCC(=O)O)NC(=O)[C@H](CCC(=O)O)NC(=O)[C@H](C)NC(=O)[C@H](C)NC(=O)[C@H](CCC(=O)O)NC(=O)CNC(=O)[C@H](CCC(=O)O)NC(=O)[C@H](CC(C)C)NC(=O)[C@](C)(Cc1ccccc1)NC(=O)[C@H](CO)NC(=O)[C@](C)(CO)NC(=O)[C@@H](NC(=O)[C@H](CC(=O)O)NC(=O)[C@H](CO)NC(=O)[C@@H](NC(=O)[C@](C)(Cc1ccccc1)NC(=O)[C@H](CO)NC(=O)CNC(=O)[C@H](CCC(=O)O)NC(=O)C(C)(C)NC(=O)[C@@H](N)Cc1c[nH]cn1)[C@@H](C)O)C(C)C)C(=O)N[C@@H](C)C(=O)N[C@@](C)(Cc1ccccc1)C(=O)N[C@H](C(=O)N[C@H](C(=O)N[C@@H](CCC(=O)O)C(=O)NCC(=O)NCC(N)=O)C(C)C)C(C)C [compound 44] (H-H[Aib]EGS[αMeF]TSDV[αMeS]S[αMeF]LEGEAAEE[αMeF]IA[αMeF]VVEGG-NH2),EC50,"[1]; cAMP activity, read-out: Mean pM GLP-1R",6.7 pM
same,EC50,GLP-1R (INS1e cells); [4],455 pM
CCCCCCCCCCCCCCCCCC(=O)NCCOCCOCC(=O)NCCOCCOCC(=O)NCCOCCOCC(=O)NCCCC[C@H](NC(=O)[C@H](C)NC(=O)[C@H](C)NC(=O)[C@H](CCC(=O)O)NC(=O)CNC(=O)[C@H](CCC(=O)O)NC(=O)[C@H](CC(C)C)NC(=O)[C@](C)(Cc1ccccc1)NC(=O)[C@H](CO)NC(=O)[C@H](CO)NC(=O)[C@@H](NC(=O)[C@H](CC(=O)O)NC(=O)[C@H](CO)NC(=O)[C@@H](NC(=O)[C@](C)(Cc1ccccc1)NC(=O)[C@H](CO)NC(=O)CNC(=O)[C@H](CCC(=O)O)NC(=O)C(C)(C)NC(=O)[C@@H](N)Cc1c[nH]cn1)[C@@H](C)O)C(C)C)C(=O)N[C@@H](CCC(=O)O)C(=O)N[C@@](C)(Cc1ccccc1)C(=O)N[C@H](C(=O)N[C@@H](C)C(=O)N[C@@](C)(Cc1ccccc1)C(=O)N[C@H](C(=O)N[C@H](C(=O)N[C@@](C)(CCCCN)C(=O)NCC(=O)NCC(N)=O)C(C)C)C(C)C)[C@@H](C)CC [compound 52],EC50,GLP-1R (INS1e cells); [4],20 pM
CCCCCCCCCCCCCCCC(=O)N[C@@H](CCC(=O)NCCCC[C@H](NC(=O)[C@H](CCC(=O)O)NC(=O)[C@](C)(CCCCN)NC(=O)[C@H](C)NC(=O)[C@H](C)NC(=O)[C@H](CCC(=O)O)NC(=O)CNC(=O)[C@H](CCC(=O)O)NC(=O)[C@H](CC(C)C)NC(=O)[C@](C)(Cc1ccccc1)NC(=O)[C@H](CO)NC(=O)[C@](C)(CO)NC(=O)[C@@H](NC(=O)[C@H](CC(=O)O)NC(=O)[C@H](CO)NC(=O)[C@@H](NC(=O)[C@](C)(Cc1ccccc1)NC(=O)[C@H](CO)NC(=O)CNC(=O)[C@H](CCC(=O)O)NC(=O)C(C)(C)NC(=O)[C@@H](N)Cc1c[nH]cn1)[C@@H](C)O)C(C)C)C(=O)N[C@H](C(=O)N[C@@H](C)C(=O)N[C@@](C)(Cc1ccccc1)C(=O)N[C@H](C(=O)N[C@H](C(=O)N[C@@](C)(CCCCN)C(=O)NCC(=O)NCC(N)=O)C(C)C)C(C)C)[C@@H](C)CC)C(=O)O [compound 78],EC50,GLP-1R (INS1e cells); [4],346 pM
same,pEC50,"GLP-1R (INS1e cells); Table 8, substituted and mono-lipidated peptides, replicate n2, read-out: INS1e assay EC50 GLP-1R n2",9.46
CC[C@H](C)[C@H](NC(=O)[C@](C)(Cc1ccccc1)NC(=O)[C@H](CCC(=O)O)NC(=O)[C@](C)(CCCCN)NC(=O)[C@H](C)NC(=O)[C@H](C)NC(=O)[C@H](CCC(=O)O)NC(=O)CNC(=O)[C@H](CCC(=O)O)NC(=O)[C@H](CC(C)C)NC(=O)[C@](C)(Cc1ccccc1)NC(=O)[C@H](CO)NC(=O)[C@](C)(CO)NC(=O)[C@@H](NC(=O)[C@H](CC(=O)O)NC(=O)[C@H](CO)NC(=O)[C@@H](NC(=O)[C@](C)(Cc1ccccc1)NC(=O)[C@H](CO)NC(=O)CNC(=O)[C@H](CCC(=O)O)NC(=O)C(C)(C)NC(=O)[C@@H](N)Cc1c[nH]cn1)[C@@H](C)O)C(C)C)C(=O)N[C@@H](C)C(=O)N[C@@](C)(Cc1ccccc1)C(=O)N[C@H](C(=O)N[C@H](C(=O)N[C@@H](CCCCNC(=O)COCCOCCNC(=O)CCCCCCCCCCCCCCCCC(=O)O)C(=O)NCC(=O)NCC(N)=O)C(C)C)C(C)C [compound 197],EC50,[1]; read-out: Mean pM GLP-1R,79 pM
same,pEC50,"[1]; replicate n1, read-out: Primary assay EC50 GLP-1R n1",9.92
same,pEC50,"[1]; replicate n2, read-out: Primary assay EC50 GLP-1R n2",10.47
same,pEC50,"[2]; second replicate (n2), read-out: Primary assay EC50 Gluc-R",≤ 7.57
same,pEC50,"[3]; first replicate, read-out: Primary assay EC50 GIP-R",≤ 7.57
same,pEC50,"[3]; second replicate (n2), read-out: Primary assay EC50 GIP-R",≤ 7.57
CC[C@H](C)[C@H](NC(=O)[C@H](Cc1ccccc1)NC(=O)[C@H](CCC(=O)O)NC(=O)[C@](C)(CCCCN)NC(=O)[C@H](C)NC(=O)[C@H](C)NC(=O)[C@H](CCC(=O)O)NC(=O)CNC(=O)[C@H](CCC(=O)O)NC(=O)[C@H](CC(C)C)NC(=O)[C@H](CCCCNC(=O)COCCOCCNC(=O)COCCOCCNC(=O)CC[C@H](NC(=O)CCCCCCCCCCCCCCC(=O)O)C(=O)O)NC(=O)[C@H](CO)NC(=O)[C@](C)(CO)NC(=O)[C@@H](NC(=O)[C@H](CC(=O)O)NC(=O)[C@H](CO)NC(=O)[C@@H](NC(=O)[C@](C)(Cc1ccccc1)NC(=O)[C@H](CO)NC(=O)CNC(=O)[C@H](CCC(=O)O)NC(=O)C(C)(C)NC(=O)[C@@H](N)Cc1c[nH]cn1)[C@@H](C)O)C(C)C)C(=O)N[C@@H](C)C(=O)N[C@@H](Cc1c[nH]c2ccccc12)C(=O)N[C@@H](CCCCNC(=O)COCCOCCNC(=O)COCCOCCNC(=O)CC[C@H](NC(=O)CCCCCCCCCCCCCCC(=O)O)C(=O)O)C(=O)N[C@H](C(=O)N[C@@H](CCC(=O)O)C(=O)NCC(=O)NCC(N)=O)C(C)C [compound 267] (H-H[Aib]EGS[αMeF]TSDV[αMeS]SK([AEEA-AEEA-γGlu-C16 diacid])LEGEAA[αMeK]EFIAWK([AEEA-AEEA-γGlu-C16 diacid])VEGG-NH2; N-terminus assumed),EC50,"[1]; Table 9, bis-lipidated peptides, read-out: Primary assay EC50 Mean pM GLP-1R",569 pM
same,pEC50,"[1]; Table 9, bis-lipidated peptides, replicate n1, read-out: Primary assay EC50 GLP-1R n1",9.20
same,pEC50,"[1]; Table 9, bis-lipidated peptides, replicate n2, read-out: Primary assay EC50 GLP-1R n2",9.29
same,pEC50,"[2]; Table 9, bis-lipidated peptides, first replicate, read-out: Primary assay EC50 Gluc-R (n1)",≤ 7.66
same,pEC50,"[2]; Table 9, bis-lipidated peptides, second replicate, read-out: Primary assay EC50 Gluc-R (n2)",≤ 7.66
same,pEC50,"[3]; Table 9, bis-lipidated peptides, first replicate, read-out: Primary assay EC50 GIP-R (n1)",≤ 7.66
same,pEC50,"[3]; Table 9, bis-lipidated peptides, second replicate, read-out: Primary assay EC50 GIP-R (n2)",≤ 7.66
CCCCCCCCCCCC(=O)N[C@@H](CCC(=O)NCCOCCOCC(=O)NCCOCCOCC(=O)NCCCC[C@H](NC(=O)[C@H](C)NC(=O)[C@@H](NC(=O)[C@H](Cc1ccccc1)NC(=O)[C@H](CCCCNC(=O)COCCOCCNC(=O)COCCOCCNC(=O)CC[C@H](NC(=O)CCCCCCCCCCC)C(=O)O)NC(=O)[C@](C)(CCCCN)NC(=O)[C@H](C)NC(=O)[C@H](C)NC(=O)[C@H](CCC(=O)O)NC(=O)CNC(=O)[C@H](CCC(=O)O)NC(=O)[C@H](CCCCNC(=O)COCCOCCNC(=O)COCCOCCNC(=O)CC[C@H](NC(=O)CCCCCCCCCCC)C(=O)O)NC(=O)[C@H](Cc1ccc(O)cc1)NC(=O)[C@H](CO)NC(=O)[C@](C)(CO)NC(=O)[C@@H](NC(=O)[C@H](CC(=O)O)NC(=O)[C@H](CO)NC(=O)[C@@H](NC(=O)[C@](C)(Cc1ccccc1)NC(=O)[C@H](CO)NC(=O)CNC(=O)[C@H](CCC(=O)O)NC(=O)C(C)(C)NC(=O)[C@@H](N)Cc1c[nH]cn1)[C@@H](C)O)C(C)C)[C@@H](C)CC)C(=O)N[C@H](C(=O)N[C@H](C(=O)N[C@@H](CCC(=O)O)C(=O)NCC(=O)NCC(N)=O)C(C)C)C(C)C)C(=O)O [compound 470] (H-H[Aib]EGS[αMeF]TSDV[αMeS]SYK([AEEA-AEEA-γGlu-Lauroyl])EGEAA[αMeK]K([AEEA-AEEA-γGlu-Lauroyl])FIAK([AEEA-AEEA-γGlu-Lauroyl])VVEGG-NH2; N-terminus assumed),EC50,"GLP-1R (INS1e cells); Table 12, tris-lipidated peptides",3660 pM
